Test results reported in the supplement of paper PMC10307832.

How the values were obtained:
Assay in all cases: relative viability (nuclei count vs DMSO), 5 days (fraction); higher = more cells survive
[1] = compound: O=c1[nH]cc(F)c(=O)[nH]1 [5-Fluorouracil] + COc1cc2c(Oc3ccc(NC(=O)C4(C(=O)Nc5ccc(F)cc5)CC4)cc3F)ccnc2cc1OCCCN1CCOCC1 [Foretinib] (partner 0.25 µM)
In short: (§1)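 Relative viability divides the nuclei count in treated wells by that in vehicle wells. Lung cancer cell lines were seeded in 1536-well plates, dosed by pin tool the next day, and fixed and stained after 5 days in one step with final 0.05% Triton X-100, 1% formaldehyde and 1 ug/ml Hoechst. Dosing was a single drug or a fixed anchor-drug dose plus five library-drug doses (not always all listed) in √10 steps, and values are medians of duplicate plates imaged at 4×.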

Sulindac + Pemetrexed = compound: CC1=C(CC(=O)O)c2cc(F)ccc2/C1=C\c1ccc([S+](C)[O-])cc1 [Sulindac] + Nc1nc2[nH]cc(CCc3ccc(C(=O)N[C@@H](CCC(=O)O)C(=O)O)cc3)c2c(=O)[nH]1 [Pemetrexed] (partner 0.2 µM)
In short: as §1

[2] = compound: O=c1[nH]cc(F)c(=O)[nH]1 [5-Fluorouracil] + Cc1nc(Nc2ncc(C(=O)Nc3c(C)cccc3Cl)s2)cc(N2CCN(CCO)CC2)n1 [Dasatinib] (partner 0.075 µM)
In short: as §1

Staurosporine + AZD7762 = compound: CN[C@@H]1C[C@H]2O[C@@](C)([C@@H]1OC)n1c3ccccc3c3c4c(c5c6ccccc6n2c5c31)C(=O)NC4 [Staurosporine] + NC(=O)Nc1cc(-c2cccc(F)c2)sc1C(=O)N[C@H]1CCCNC1 [AZD7762] (partner 0.2 µM)
In short: as §1

| Cell Line | relative viability ([1]; first compound 0.02 µM) | relative viability ([1]; first compound 0.2 µM) | relative viability ([1]; first compound 0.6325 µM) | relative viability ([1]; first compound 2 µM) | relative viability (Sulindac + Pemetrexed; first compound 0.08 µM) | relative viability (Sulindac + Pemetrexed; first compound 0.253 µM) | relative viability (Sulindac + Pemetrexed; first compound 0.8 µM) | relative viability (Sulindac + Pemetrexed; first compound 2.53 µM) | relative viability (Sulindac + Pemetrexed; first compound 8 µM) | relative viability ([2]; first compound 0.02 µM) | relative viability ([2]; first compound 0.2 µM) | relative viability ([2]; first compound 0.6325 µM) | relative viability ([2]; first compound 2 µM) | relative viability (Staurosporine + AZD7762; first compound 0.005 µM) | relative viability (Staurosporine + AZD7762; first compound 0.01581 µM) | relative viability (Staurosporine + AZD7762; first compound 0.05 µM) | relative viability (Staurosporine + AZD7762; first compound 0.1581 µM) | relative viability (Staurosporine + AZD7762; first compound 0.5 µM) |
| --- | --- | --- | --- | --- | --- | --- | --- | --- | --- | --- | --- | --- | --- | --- | --- | --- | --- | --- |
| PC-14 | 1.1 | 0.987 | 0.757 | 0.58 | 0.122 | 0.118 | 0.162 | 0.13 | 0.147 | 0.247 | 0.268 | 0.274 | 0.188 | 0.302 | 0.0766 | 0.0421 | 0.0892 | 0.0415 |
| HARA | 0.884 | 0.855 | 0.875 | 0.713 | 0.237 | 0.257 | 0.242 | 0.239 | 0.288 | 0.274 | 0.388 | 0.232 | 0.192 | 0.278 | 0.169 | 0.262 | – | 0.029 |
| NCI-H23 | 1.08 | 0.825 | 0.52 | 0.431 | 0.768 | 0.683 | 0.237 | 0.7 | 0.692 | 0.789 | 0.991 | 0.475 | 0.278 | 0.223 | 0.126 | 0.164 | 0.12 | 0.0804 |
| LCLC-97TM1 | 0.941 | 0.989 | 0.941 | 0.671 | 0.205 | 0.178 | 0.147 | 0.177 | 0.198 | 0.79 | 0.978 | 0.837 | 0.745 | 0.225 | 0.121 | 0.169 | 0.176 | 0.141 |
| LC-2-ad | 0.979 | 0.663 | 0.414 | 0.339 | 0.29 | 0.27 | 0.273 | 0.263 | 0.254 | 0.785 | 0.354 | 0.328 | 0.209 | – | 0.276 | 0.172 | 0.12 | 0.0995 |
| NCI-H1666 | 0.969 | 0.672 | 0.466 | 0.405 | 0.924 | 0.852 | 0.818 | 0.858 | 0.878 | 0.848 | 0.555 | 0.4 | 0.391 | 0.701 | 0.51 | 0.524 | 0.404 | 0.32 |
| EKVX | 0.707 | 0.321 | 0.177 | 0.149 | 0.471 | 0.421 | 0.323 | 0.423 | 0.433 | – | – | – | – | 0.239 | 0.119 | 0.286 | 0.321 | – |
| SW 1573 | 0.867 | 1.11 | 0.784 | 0.641 | 0.91 | 0.887 | 0.737 | 0.754 | 0.9 | 0.58 | 0.402 | 0.472 | 0.259 | – | – | – | – | – |
| HCC-827 | 0.879 | 0.95 | 0.602 | 0.429 | 0.286 | 0.282 | 0.249 | 0.241 | 0.26 | 0.254 | 0.335 | 0.305 | 0.337 | 0.204 | 0.179 | 0.153 | 0.143 | 0.115 |
| NCI-H727 | 0.791 | 0.79 | 0.903 | 0.656 | – | – | – | – | – | 0.38 | 0.395 | 0.378 | 0.375 | 0.622 | 0.412 | 0.55 | 0.466 | 0.461 |
| CAL-12T | 1.21 | 1.21 | 1.07 | 0.434 | 1.18 | 1.1 | 1.24 | 1.14 | 1.44 | 0.403 | 0.371 | 0.282 | 0.261 | 0.416 | 0.338 | 0.409 | 0.257 | 0.167 |
| NCI-H1648 | – | – | – | – | 0.889 | 0.781 | – | 0.569 | 0.787 | – | – | – | – | 0.611 | 0.409 | 0.373 | 0.412 | 0.388 |
| NCI-H522 | – | – | – | – | 0.859 | 0.985 | 1.05 | 0.88 | 0.96 | 0.844 | 0.852 | 0.979 | 0.868 | 0.953 | 0.866 | 0.715 | 0.639 | 0.404 |
| IA-LM | 1.33 | 0.618 | 0.496 | 0.236 | – | – | – | – | – | – | – | – | – | – | – | – | – | – |
| EPLC-272H | 0.665 | 0.446 | 0.296 | 0.163 | 0.274 | 0.326 | 0.465 | 0.278 | 0.347 | 0.271 | 0.304 | 0.234 | 0.129 | 0.235 | 0.145 | 0.111 | 0.0612 | 0.0657 |
| A-427 | 0.961 | 1.19 | 1.08 | 0.625 | 1.01 | 1 | 0.816 | 0.956 | 1.1 | 0.562 | 0.764 | 0.618 | 0.353 | 0.545 | 0.305 | 0.246 | 0.169 | 0.142 |
| NCI-H661 | 1.03 | – | 1.02 | 0.972 | 0.953 | 0.931 | 0.869 | 0.922 | 0.981 | 0.962 | 1.01 | 0.81 | 0.851 | – | – | – | – | – |
| NCI-H1993 | 0.741 | 0.728 | 0.706 | 0.667 | 0.704 | 0.575 | 0.648 | 0.638 | 0.551 | 0.581 | 0.566 | 0.503 | 0.487 | 0.676 | 0.39 | 0.407 | 0.331 | 0.296 |
| NCI-H358 | 0.71 | 0.918 | 0.657 | 0.308 | 0.183 | 0.157 | 0.17 | 0.151 | 0.182 | 0.206 | 0.199 | 0.2 | 0.161 | 0.339 | 0.378 | 0.253 | 0.195 | 0.172 |
| SK-LU-1 | 0.819 | 0.902 | 0.75 | 0.681 | 1.13 | 1.05 | 0.821 | 1.02 | 1.02 | 0.189 | 0.182 | 0.195 | 0.166 | – | – | – | – | – |
